Source: US20140193827A1 (TEVA PHARMACEUTICAL INDUSTRIES, LTD., priority 2013, published 2014)

Tested on: GA-primed murine splenocytes
Assay: Tolerance method for assessing process variability
Settings: microarray; splenocytes activated 24 hours

Substance: glatiramer acetate [GA]
- AVG expression of 1110067B18RIK, probe ILMN_2514723: 8.228
- AVG expression of 1190002H23RIK, probe ILMN_2593774: 7.583
- AVG expression of 1700129I04RIK, probe ILMN_1224390: 6.752
- AVG expression of 2810485I05RIK, probe ILMN_2695217: 10.37
- AVG expression of A130087I02RIK, probe ILMN_1232144: 6.482
- AVG expression of A630077B13RIK, probe ILMN_1249864: 9.099
- AVG expression of A930005H10RIK, probe ILMN_1250135: 10.04
- AVG expression of ADA, probe ILMN_2686132: 7.525
- AVG expression of AI467606, probe ILMN_1213645: 10.38
- AVG expression of ANKRD11, probe ILMN_2727235: 9.978
- AVG expression of APPL2, probe ILMN_1219978: 7.742
- AVG expression of ARHGAP4, probe ILMN_2677876: 11.38
- AVG expression of ARRB2, probe ILMN_2700848: 9.049
- AVG expression of AVIL, probe ILMN_2753149: 6.407
- AVG expression of B3GNT7, probe ILMN_2655571: 6.563
- AVG expression of B230345P09RIK, probe ILMN_2469190: 8.997
- AVG expression of BATF3, probe ILMN_2526739: 6.73
- AVG expression of BC038822, probe ILMN_2804103: 7.38
- AVG expression of BC065085, probe ILMN_2974737: 7.582
- AVG expression of BEX4, probe ILMN_3118584: 6.717
- AVG expression of BLVRB, probe ILMN_2770917: 9.003
- AVG expression of C3, probe ILMN_2759484: 8.352
- AVG expression of C130078N17RIK, probe ILMN_2522495: 10.34
- AVG expression of C230082I21RIK, probe ILMN_1248824: 8.744
- AVG expression of C430002D13RIK, probe ILMN_2571616: 7.951
- AVG expression of CCND2, probe ILMN_1225932: 8.425
- AVG expression of CCNG1, probe ILMN_2710229: 8.72
- AVG expression of CCR6, probe ILMN_2888448: 11.42
- AVG expression of CD44, probe ILMN_1223697: 10.12
- AVG expression of CHD3, probe ILMN_2524861: 7.978
- AVG expression of CHKA, probe ILMN_3026397: 12.08
- AVG expression of CLASP1, probe ILMN_1225769: 7.92
- AVG expression of CLIC4, probe ILMN_2599018: 7.206
- AVG expression of CLSPN, probe ILMN_2858359: 8.857
- AVG expression of CRTC3, probe ILMN_1248891: 8.262
- AVG expression of CSNK1G3, probe ILMN_2793946: 9.73
- AVG expression of CYP51, probe ILMN_2688075: 9.707
- AVG expression of DEADC1, probe ILMN_2705097: 9.246
- AVG expression of DGKZ, probe ILMN_1239607: 8.46
- AVG expression of DLM1-PENDING, probe ILMN_1218547: 6.869
- AVG expression of DYRK2, probe ILMN_3138439: 6.905
- AVG expression of E2F3, probe ILMN_2743503: 7.726
- AVG expression of EG433016, probe ILMN_2995688: 8.853
- AVG expression of ENTPD5, probe ILMN_3149143: 7.434
- AVG expression of F2RL1, probe ILMN_2769567: 6.312
- AVG expression of FBXO4, probe ILMN_2772920: 9.934
- AVG expression of FOSL2, probe ILMN_1252481: 8.057
- AVG expression of FOXP3, probe ILMN_2917180: 7.709
- AVG expression of FSCN1, probe ILMN_2630605: 8.879
- AVG expression of FXYD5, probe ILMN_1235493: 10.05
- AVG expression of GAB3, probe ILMN_3133748: 7.208
- AVG expression of GRN, probe ILMN_2595973: 10.66
- AVG expression of H3F3B, probe ILMN_1231168: 8.812
- AVG expression of HAMP, probe ILMN_1236304: 6.455
- AVG expression of HEG1, probe ILMN_2600022: 7.682
- AVG expression of HIST2H2AA1, probe ILMN_2751948: 7.127
- AVG expression of HTT, probe ILMN_2672091: 7.448
- AVG expression of IFITM1, probe ILMN_2814484: 7.066
- AVG expression of IFNGR2, probe ILMN_2784272: 9.806
- AVG expression of IGK-V5, probe ILMN_2631259: 11.21
- AVG expression of IL1A, probe ILMN_1227018: 8.103
- AVG expression of IL13, probe ILMN_2927131: 6.7
- AVG expression of IRF8, probe ILMN_2673369: 10.92
- AVG expression of KIF1B, probe ILMN_2587761: 6.394
- AVG expression of LDHA, probe ILMN_1257965: 12.99
- AVG expression of LOC386005, probe ILMN_2538029: 10.77
- AVG expression of LOC637711, probe ILMN_1239601: 8.053
- AVG expression of LOC677643, probe ILMN_1225733: 9.931
- AVG expression of LOC100043671, probe ILMN_1258600: 9.958
- AVG expression of LOC100046496, probe ILMN_1229263: 10.5
- AVG expression of LOC100046793, probe ILMN_2469743: 12
- AVG expression of LOC100047316, probe ILMN_1215825: 8.765
- AVG expression of LY78, probe ILMN_2585533: 7.951
- AVG expression of MSH5, probe ILMN_1241923: 6.819
- AVG expression of NFAT5, probe ILMN_2612448: 9.617
- AVG expression of NKG7, probe ILMN_1217855: 9.69
- AVG expression of PEA15, probe ILMN_2624938: 8.032
- AVG expression of PEX11C, probe ILMN_2467365: 6.162
- AVG expression of RABAC1, probe ILMN_1244857: 10.79
- AVG expression of RDM1, probe ILMN_1218934: 9.296
- AVG expression of RFC3, probe ILMN_2543834: 7.31
- AVG expression of RNF167, probe ILMN_2892856: 9.181
- AVG expression of RUNDC3B, probe ILMN_2660596: 7.1822
- AVG expression of SCN4A, probe ILMN_2814847: 7.299
- AVG expression of SDF2L1, probe ILMN_1221943: 9.843
- AVG expression of SERPINA3H, probe ILMN_2889832: 7.95
- AVG expression of SGCB, probe ILMN_1255256: 7.292
